According to publication PMC5489047, “Molecular glues for manipulating enzymes: trypsin inhibition by benzamidine-conjugated molecular glues” (Chemical Science, 2015):

How the values were obtained:
trypsin [1] = molecular target: T1, trypsin (Sus scrofa, UniProt P00761); test: Trypsin activity assay (TAME hydrolysis, absorption at 247 nm); type: biochemical; conditions: trypsin 20 nM, TAME 1 mM
T1 construct: purchased Wako; host or cells: porcine pancreas (natural source)
Excerpt: Trypsin hydrolyses peptide linkages at the carboxyl side of lysine and arginine residues.[29] As already described in Fig. 2a, this protease activity is inhibited by BA.[10] Considering the exceptionally high affinity of Glue29–BA for trypsin, we expected that this BA-appended molecular glue might be the best inhibitor among those listed in Fig. 1. However, as observed by dynamic light scattering (DLS; Fig. S12 ^†), trypsin/Glue29–BA, in contrast with other complexes such as trypsin/Glue10–BA and trypsin/Glue10–Ph, tends to form large aggregates (>200 nm), most likely due to the formation of physical crosslinks between its excessively long glue moiety and trypsin. […] We presume that the poor conformational flexibility of the in-chain Gu^+ units in the glue moiety hinders the ability of the conjugated BA terminus to properly block the substrate-binding site of trypsin. […]
To a Tris–HCl buffer (50 mM Tris–HCl, 10 mM CaCl2, pH 8.0) solution of trypsin (20 nM) was added a Tris–HCl buffer solution of TEG–BA, and the mixture was incubated at 25 °C for 1 min. […] The trypsin activity was determined using pseudo-first order reaction kinetics and normalized to that of untreated trypsin. The trypsin activities in the presence of Gluen–BA, ^mGluen–BA and Gluen–Ph were likewise evaluated.

trypsin [2] = molecular target: T1, trypsin; test: Circular dichroism (CD) spectral titration of trypsin, Hill equation fit; type: binding; conditions: trypsin 5 μM, CD at 237 nm, 25 °C, Tris–HCl buffer (50 mM Tris–HCl, 10 mM CaCl2, pH 8.0), read-out: association constant (K assoc) with trypsin (converted)
Excerpt: We first investigated the effect of conjugation of molecular glues to BA on the binding affinity for trypsin. Trypsin is known to alter its conformation upon interaction with metal ions,[24] polymers[25] and proteins,[26] resulting in circular dichroism (CD) spectral changes. Upon mixing with Glue10–BA, trypsin also changed its CD spectrum. […] According to the reported method,[27],[28] we estimated the association constant (K assoc) of Glue10–BA with trypsin to be 5.5 × 10^5 M^–1 by fitting the fractions of bound trypsin (Fig. 3, red) to the Hill equation.[27],[28] […]
Fig. 3 Circular dichroism (CD) spectral titration profiles of trypsin (5 μM) at 237 nm with molecular glues Glue29–BA (brown; 0–2.5 μM), Glue10–BA (red; 0–7 μM), Glue10–Ph (green; 0–12 μM) and ^mGlue27–BA (purple; 0–50 μM), together with reference TEG–BA (blue; 0–200 μM), at 25 °C in Tris–HCl buffer (50 mM Tris–HCl, 10 mM CaCl2, pH 8.0). The fractions of bound trypsin were calculated from (I – I 0)/(I sat – I 0), where I 0, I and I sat represent the CD intensities before titration, observed with titrants and at the saturation point, respectively. […]
The association constants (K assoc) were calculated based on the Hill equation by plotting the fractions of bound trypsin versus the concentrations of a titrant. […]

T1 sequence (P00761 9-231): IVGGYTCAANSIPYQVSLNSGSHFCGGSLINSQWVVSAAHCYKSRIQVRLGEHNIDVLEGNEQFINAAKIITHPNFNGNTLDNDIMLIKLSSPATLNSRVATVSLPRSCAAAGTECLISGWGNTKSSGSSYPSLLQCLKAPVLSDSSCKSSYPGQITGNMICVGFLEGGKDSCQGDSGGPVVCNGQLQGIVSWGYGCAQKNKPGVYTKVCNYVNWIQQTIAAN

inhibition of TAME hydrolysis by trypsin at 10 μM (trypsin [1]; 10 μM compound): did not exhibit detectable inhibition
IC50 (trypsin [1]; 25 °C, Tris–HCl buffer pH 8.0, read-out: half-maximal inhibitory concentration (IC50)): 79 µM
Kd (trypsin [2]): 62.5 µM
Structure (SMILES): [N-]=[N+]=NCCOCCOCCOCCNC(=O)CCCC(=O)Nc1ccc(C(=N)N)cc1 [TEG–BA]
